Target: T1, Ha24 (rHa24-GST) (Hyalomma asiaticum, UniProt A0A1W5TAU9)
T1 construct: precursor 227 aa with 26-residue signal peptide, mature 201 aa
T1 sequence (A0A1W5TAU9 27-227): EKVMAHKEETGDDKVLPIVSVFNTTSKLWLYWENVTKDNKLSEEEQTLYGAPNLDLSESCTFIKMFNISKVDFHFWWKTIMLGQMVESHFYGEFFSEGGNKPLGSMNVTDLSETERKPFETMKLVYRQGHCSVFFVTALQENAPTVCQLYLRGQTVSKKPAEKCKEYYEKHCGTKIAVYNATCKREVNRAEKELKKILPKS
Assay: ELISA with immobilised rHa24-GST and histamine-HRP conjugate, OD […] nm
Format: binding
Conditions: labelled compound (histamine-HRP); protein coated at 1.25-10 ug/ml, pH 9.6; 37 °C, 2 h; GST as control

SMILES: NCCc1c[nH]cn1 [histamine]
- ELISA with immobilised rHa24-GST and histamine-HRP conjugate, OD 650 nm: The results showed that rHa24 has the ability to bind with histamine

— article PMC5027092, “Specific histamine binding activity of a new lipocalin from Hyalomma asiaticum (Ixodidae) and therapeutic effects on allergic asthma in mice” (Parasites & Vectors, 2016)
